# Assay results reported in ChEMBL document CHEMBL5149962, “Targeting KRAS mutant cancers by preventing signaling transduction in the MAPK pathway” (Eur J Med Chem, 2021).
# Tests used:
# [1] = Competitive binding of mammalian GGTase-1 expressed in Sf9 cells assessed as inhibition of 3H-GGPP binding to RAS using Ras-CVLL as substrate incubated for 10 mins; parameters: species or system Mammalia
# [2] = Inhibition of mammalian GGTase-1 expressed in Sf9 cells using wildtype His-tagged RAS-CVLL as substrate assessed as inhibition of substrate plasma membrane localisation; format: cell membranes, Mammalia
# [3] = tested on: Calu-1; test: Antitumor activity against human Calu-1 cells transfected with KRAS mutant xenografted nude mouse assessed as inhibition of tumor growth at 70 mg/kg, ip administrated once daily measure for 40 to 80 days relative to control; format: functional; parameters: scale not given: the % may be the effect or the level left; settings: time 40-80 day
# [4] = tested on: NIH3T3; test: Antitumor activity against mouse NIH3T3 cells transfected with KRAS4B xenografted nude mouse assessed as inhibition of tumor growth at 35 mg/kg, ip administered in the presence of FTI-276 relative to control; format: functional; parameters: scale not given: the % may be the effect or the level left
# [5] = tested on: NIH3T3; test: Antitumor activity against mouse NIH3T3 cells transfected with H-Ras CVLS xenografted nude mouse assessed as inhibition of tumor growth at 70 mg/kg, ip administered once daily relative to control; format: functional; parameters: scale not given: the % may be the effect or the level left
# [6] = tested on: NCI-H460; test: Cytotoxicity against human NCI-H460 cells harboring KRAS […] mutant assessed as reduction in cell viability measured after 48 hrs by MTT assay; format: functional, cell-based; settings: NCI-H460, 48 h
# [7] = tested on: HCT-116; test: Cytotoxicity against human HCT-116 cells harboring KRAS G13D mutant assessed as reduction in cell viability measured after 48 hrs by MTT assay; format: functional, cell-based; settings: HCT-116, 48 h
# [8] = tested on: MIA PaCa-2; test: Cytotoxicity against human MIA PaCa-2 cells harboring KRAS G12C mutant assessed as reduction in cell viability measured after 48 hrs by MTT assay; format: functional, cell-based; settings: MIA PaCa-2, 48 h
# [9] = tested on: SW-620; test: Cytotoxicity against human SW-620 cells harboring KRAS G12V mutant assessed as reduction in cell viability measured after 48 hrs by MTT assay; format: functional
# [10] = tested on: PANC-1; test: Cytotoxicity against human PANC-1 cells harboring KRAS G12D mutant assessed as reduction in cell viability measured after 48 hrs by MTT assay; format: functional, cell-based; settings: PANC-1, 48 h
# [11] = tested on: MDA-MB-231; test: Cytotoxicity against human MDA-MB-231 cells harboring KRAS G13D mutant assessed as reduction in cell viability measured after 48 hrs by MTT assay; format: functional, cell-based; settings: MDA-MB-231, 48 h
structure (smiles),measurement,setting,value
CSCCc1c(-c2cccnc2)nn(-c2ccc(Cl)c(Cl)c2)c1OCCCC(=O)N[C@@H](Cc1ccccc1)C(N)=O,Ki,[1],0.8 nM
same,IC50,[2],2000 nM
CC(C)C[C@H](NC(=O)c1ccc(NC[C@@H](N)CS)cc1-c1cccc2ccccc12)C(=O)O,Activity,[3],60%
same,Activity,[4],65%
same,Activity,[5],40%
CCCc1c(OCCCCCOc2coc(CO)cc2=O)ccc(Cl)c1Cl,IC50,[6],15 µM
same,IC50,[7],8 µM
same,IC50,[8],10.2 µM
same,IC50,[9],37.1 µM
same,IC50,[10],17.3 µM
same,IC50,[11],7 µM
